According to ChEMBL document CHEMBL5260838 (J Med Chem, 2019):
Values after ≈ are worked out from the molar mass of the structure shown.

Experiments:
[1] = target: T1, Sodium channel protein type 9 subunit alpha (Homo sapiens, UniProt Q15858); test: Displacement of [3H]GX-545 from human Nav1.7 alpha subunit expressed in HEK293 cells co-expressing beta1 subunit by liquid scintillation counting analysis; format: cell-based
[2] = Lipophilicity, logD of the compound at pH 7.4; format: physicochemical; conditions: buffer
[3] = target: T1, Sodium channel protein type 9 subunit alpha; test: Inhibition of human Nav1.7 alpha subunit expressed in HEK293 cells co-expressing beta1 subunit at -60 mV holding potential by whole-cell patch voltage clamp electrophysiology recording; format: cell-based
[4] = Protein binding in human plasma; format: ADME, cell-free; conditions: read-out: PPB (converted)
[5] = AUC in Sprague-Dawley rat at 5 mg/kg, po; format: ADME, organism-based; set-up: dose 5 mg/kg, route po; conditions: in vivo
[6] = Oral bioavailability in FVB mouse at 30 mg/kg; format: ADME, organism-based; conditions: in vivo
[7] = AUC in FVB mouse at 30 mg/kg, po; format: ADME, organism-based; set-up: dose 30 mg/kg, route po; conditions: in vivo
[8] = Cmax in FVB mouse at 30 mg/kg, po; format: ADME, organism-based; set-up: dose 30 mg/kg, route po; conditions: in vivo
[9] = Protein binding in rat plasma; format: ADME, cell-free; conditions: read-out: PPB (converted)
[10] = Protein binding in mouse plasma; format: ADME, cell-free; conditions: read-out: PPB (converted)
[11] = target: Sodium channel protein type 9 subunit alpha (Mus musculus, UniProt Q62205); test: Inhibition of mouse Nav1.7 at -60 mV holding potential by PatchXpress automated voltage clamp electrophysiology technique
[12] = target: Sodium channel protein type 2 subunit alpha (Homo sapiens, UniProt Q99250); test: Inhibition of human Nav1.2 alpha subunit expressed in HEK293 cells co-expressing beta1 subunit at -35 mV holding potential by PatchXpress automated voltage clamp electrophysiology technique; format: cell-based
[13] = test system: Mus musculus; test: Antinociceptive activity against aconitine-induced pain in FVB mouse model expressing human Nav 1.7 I848T mutant assessed as reduction in nociceptive behavior at 3 mg/kg administered 120 mins prior to aconitine administration and measured after 70 mins relative to control; format: functional; set-up: scale not given: the % may be the effect or the level left; conditions: time 190 min, 3.167 h
[14] = target: Sodium channel protein type 5 subunit alpha (Homo sapiens, UniProt Q14524); test: Inhibition of human Nav1.5 alpha subunit expressed in HEK293 cells co-expressing beta1 subunit at -60 mV holding potential by PatchXpress automated voltage clamp electrophysiology technique; format: cell-based
[15] = Cmax in Sprague-Dawley rat at 5 mg/kg, po; format: ADME, organism-based; set-up: dose 5 mg/kg, route po; conditions: in vivo
[16] = Half-life in FVB mouse at 30 mg/kg, po; format: ADME, organism-based; conditions: in vivo
[17] = Volume of distribution at steady state in Sprague-Dawley rat at 1 mg/kg, iv; format: ADME, organism-based; conditions: in vivo, read-out: Vdss
[18] = test system: Mus musculus; test: Antinociceptive activity against aconitine-induced pain in FVB mouse model expressing human Nav 1.7 I848T mutant assessed as reduction in nociceptive behavior at 6 mg/kg administered 120 mins prior to aconitine administration and measured after 70 mins relative to control; format: functional; set-up: scale not given: the % may be the effect or the level left; conditions: time 190 min, 3.167 h
[19] = target: Sodium channel protein type 9 subunit alpha (Rattus norvegicus, UniProt O08562); test: Inhibition of rat Nav1.7 at -60 mV holding potential by PatchXpress automated voltage clamp electrophysiology technique
[20] = Apparent permeability from apical to basolateral side in MDCK1 cells; format: ADME, cell-based, Canis lupus familiaris; conditions: dog, MDCK
[21] = test system: mouse breast cancer resistant protein (Bcrp); test: Apparent permeability from apical to basolateral side in MDCK-II cells expressing mouse breast cancer resistant protein; format: ADME, cell-based, Canis lupus familiaris; conditions: dog
[22] = Kinetic solubility of compound; format: physicochemical; conditions: read-out: Kinetic_solubility
[23] = test system: MDR1; test: Apparent permeability from apical to basolateral side in MDCK1 cells expressing MDR1; format: ADME, cell-based, Canis lupus familiaris; conditions: dog, MDCK-MDR1
[24] = Oral bioavailability in Sprague-Dawley rat at 5 mg/kg; format: ADME, organism-based; conditions: in vivo
[25] = Volume of distribution at steady state in FVB mouse at 1 mg/kg, iv; format: ADME, organism-based; conditions: FVB, in vivo, read-out: Vdss
[26] = target: Sodium channel protein type 1 subunit alpha (Homo sapiens, UniProt P35498); test: Inhibition of human Nav1.1 alpha subunit expressed in HEK293 cells co-expressing beta1 subunit at -40 mV holding potential by PatchXpress automated voltage clamp electrophysiology technique; format: cell-based
[27] = Half-life in Sprague-Dawley rat at 5 mg/kg, po; format: ADME, organism-based; conditions: in vivo
[28] = target: Sodium channel protein type 10 subunit alpha (Mus musculus) (UniProt Q6QIY3); test: Inhibition of TTX-resistant Nav1.8 in mouse dorsal root ganglion neuron at 10 uM by voltage clamp recording relative to control; format: tissue-based; conditions: DRG neuron
[29] = Half-life in Sprague-Dawley rat at 1 mg/kg, iv; format: ADME, organism-based; conditions: in vivo
[30] = Half-life in FVB mouse at 1 mg/kg, iv; format: ADME, organism-based; conditions: FVB, in vivo
[31] = Clearance in Sprague-Dawley rat at 1 mg/kg, iv; format: ADME, organism-based; conditions: in vivo
[32] = test system: Mus musculus; test: Antinociceptive activity against aconitine-induced pain in FVB mouse model expressing human Nav 1.7 I848T mutant assessed as reduction in nociceptive behavior at 10 mg/kg administered 120 mins prior to aconitine administration and measured after 70 mins relative to control; format: functional; set-up: scale not given: the % may be the effect or the level left; conditions: time 190 min, 3.167 h
[33] = target: Sodium channel protein type 8 subunit alpha (Homo sapiens, UniProt Q9UQD0); test: Inhibition of human Nav1.6 alpha subunit expressed in HEK293 cells co-expressing beta1 subunit at -35 mV holding potential by PatchXpress automated voltage clamp electrophysiology technique; format: cell-based
Sodium channel protein type 8 subunit alpha, sequence (Q9UQD0 whole entry): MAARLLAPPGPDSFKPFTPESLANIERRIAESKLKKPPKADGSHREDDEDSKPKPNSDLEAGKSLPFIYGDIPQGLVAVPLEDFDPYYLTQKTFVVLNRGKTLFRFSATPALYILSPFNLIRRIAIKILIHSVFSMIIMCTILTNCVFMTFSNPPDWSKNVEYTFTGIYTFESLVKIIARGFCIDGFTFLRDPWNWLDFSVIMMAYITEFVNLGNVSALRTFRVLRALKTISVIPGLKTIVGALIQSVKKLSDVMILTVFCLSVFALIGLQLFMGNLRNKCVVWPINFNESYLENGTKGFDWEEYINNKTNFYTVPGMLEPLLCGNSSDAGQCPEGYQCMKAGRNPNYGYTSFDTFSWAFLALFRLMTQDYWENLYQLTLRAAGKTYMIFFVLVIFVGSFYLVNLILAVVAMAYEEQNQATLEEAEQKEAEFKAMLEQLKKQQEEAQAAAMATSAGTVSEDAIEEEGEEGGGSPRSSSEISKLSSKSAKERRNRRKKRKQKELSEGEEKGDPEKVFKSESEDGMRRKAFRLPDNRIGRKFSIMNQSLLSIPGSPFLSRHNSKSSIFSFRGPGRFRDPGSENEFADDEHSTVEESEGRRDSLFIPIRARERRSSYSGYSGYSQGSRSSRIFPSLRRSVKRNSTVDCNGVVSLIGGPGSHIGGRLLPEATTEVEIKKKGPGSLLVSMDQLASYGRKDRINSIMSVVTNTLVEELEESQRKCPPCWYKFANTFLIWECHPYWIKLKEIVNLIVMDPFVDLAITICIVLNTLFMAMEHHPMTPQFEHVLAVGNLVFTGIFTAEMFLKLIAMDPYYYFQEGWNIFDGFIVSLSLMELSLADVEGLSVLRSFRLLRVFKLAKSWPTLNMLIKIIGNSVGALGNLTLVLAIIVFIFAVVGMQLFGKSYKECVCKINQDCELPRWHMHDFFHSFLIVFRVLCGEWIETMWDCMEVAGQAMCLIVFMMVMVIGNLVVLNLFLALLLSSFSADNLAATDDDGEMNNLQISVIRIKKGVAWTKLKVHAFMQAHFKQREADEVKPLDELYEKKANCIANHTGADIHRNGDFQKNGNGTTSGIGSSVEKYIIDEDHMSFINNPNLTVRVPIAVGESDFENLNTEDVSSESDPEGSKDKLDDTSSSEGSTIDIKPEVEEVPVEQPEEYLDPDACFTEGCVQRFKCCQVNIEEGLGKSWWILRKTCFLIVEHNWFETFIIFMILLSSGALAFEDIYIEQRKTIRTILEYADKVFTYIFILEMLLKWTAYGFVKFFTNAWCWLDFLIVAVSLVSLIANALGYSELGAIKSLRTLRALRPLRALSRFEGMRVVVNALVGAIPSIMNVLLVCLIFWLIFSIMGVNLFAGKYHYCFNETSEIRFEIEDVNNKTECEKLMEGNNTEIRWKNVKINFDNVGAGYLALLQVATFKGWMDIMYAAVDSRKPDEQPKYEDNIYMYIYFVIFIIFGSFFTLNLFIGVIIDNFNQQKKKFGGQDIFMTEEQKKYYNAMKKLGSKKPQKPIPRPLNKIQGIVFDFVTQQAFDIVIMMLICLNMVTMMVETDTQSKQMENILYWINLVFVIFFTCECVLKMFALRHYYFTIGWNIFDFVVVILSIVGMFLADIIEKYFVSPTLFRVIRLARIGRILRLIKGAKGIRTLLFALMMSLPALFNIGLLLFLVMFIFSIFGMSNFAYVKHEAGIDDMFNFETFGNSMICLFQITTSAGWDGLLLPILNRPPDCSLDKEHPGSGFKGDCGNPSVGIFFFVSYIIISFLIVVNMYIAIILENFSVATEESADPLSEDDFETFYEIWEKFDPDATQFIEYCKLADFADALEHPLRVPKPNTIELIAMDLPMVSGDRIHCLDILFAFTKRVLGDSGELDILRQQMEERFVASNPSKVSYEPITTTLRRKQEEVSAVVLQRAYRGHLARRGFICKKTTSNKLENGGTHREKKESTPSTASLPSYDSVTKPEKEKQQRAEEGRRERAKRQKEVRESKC

[34] = Clearance in FVB mouse at 1 mg/kg, iv; format: ADME, organism-based; conditions: in vivo
[35] = AUC in mouse at 30 mg/kg, po; format: ADME, organism-based; set-up: dose 30 mg/kg, route po; conditions: in vivo
[36] = Volume of distribution at steady state in mouse at 1 mg/kg, iv; format: ADME, organism-based; conditions: in vivo, read-out: Vdss
[37] = Cmax in mouse at 30 mg/kg, po; format: ADME, organism-based; set-up: dose 30 mg/kg, route po; conditions: in vivo
[38] = Solubility of compound; format: physicochemical
[39] = Oral bioavailability in mouse at 30 mg/kg; format: ADME, organism-based; conditions: in vivo

T1 sequence (Q15858 whole entry): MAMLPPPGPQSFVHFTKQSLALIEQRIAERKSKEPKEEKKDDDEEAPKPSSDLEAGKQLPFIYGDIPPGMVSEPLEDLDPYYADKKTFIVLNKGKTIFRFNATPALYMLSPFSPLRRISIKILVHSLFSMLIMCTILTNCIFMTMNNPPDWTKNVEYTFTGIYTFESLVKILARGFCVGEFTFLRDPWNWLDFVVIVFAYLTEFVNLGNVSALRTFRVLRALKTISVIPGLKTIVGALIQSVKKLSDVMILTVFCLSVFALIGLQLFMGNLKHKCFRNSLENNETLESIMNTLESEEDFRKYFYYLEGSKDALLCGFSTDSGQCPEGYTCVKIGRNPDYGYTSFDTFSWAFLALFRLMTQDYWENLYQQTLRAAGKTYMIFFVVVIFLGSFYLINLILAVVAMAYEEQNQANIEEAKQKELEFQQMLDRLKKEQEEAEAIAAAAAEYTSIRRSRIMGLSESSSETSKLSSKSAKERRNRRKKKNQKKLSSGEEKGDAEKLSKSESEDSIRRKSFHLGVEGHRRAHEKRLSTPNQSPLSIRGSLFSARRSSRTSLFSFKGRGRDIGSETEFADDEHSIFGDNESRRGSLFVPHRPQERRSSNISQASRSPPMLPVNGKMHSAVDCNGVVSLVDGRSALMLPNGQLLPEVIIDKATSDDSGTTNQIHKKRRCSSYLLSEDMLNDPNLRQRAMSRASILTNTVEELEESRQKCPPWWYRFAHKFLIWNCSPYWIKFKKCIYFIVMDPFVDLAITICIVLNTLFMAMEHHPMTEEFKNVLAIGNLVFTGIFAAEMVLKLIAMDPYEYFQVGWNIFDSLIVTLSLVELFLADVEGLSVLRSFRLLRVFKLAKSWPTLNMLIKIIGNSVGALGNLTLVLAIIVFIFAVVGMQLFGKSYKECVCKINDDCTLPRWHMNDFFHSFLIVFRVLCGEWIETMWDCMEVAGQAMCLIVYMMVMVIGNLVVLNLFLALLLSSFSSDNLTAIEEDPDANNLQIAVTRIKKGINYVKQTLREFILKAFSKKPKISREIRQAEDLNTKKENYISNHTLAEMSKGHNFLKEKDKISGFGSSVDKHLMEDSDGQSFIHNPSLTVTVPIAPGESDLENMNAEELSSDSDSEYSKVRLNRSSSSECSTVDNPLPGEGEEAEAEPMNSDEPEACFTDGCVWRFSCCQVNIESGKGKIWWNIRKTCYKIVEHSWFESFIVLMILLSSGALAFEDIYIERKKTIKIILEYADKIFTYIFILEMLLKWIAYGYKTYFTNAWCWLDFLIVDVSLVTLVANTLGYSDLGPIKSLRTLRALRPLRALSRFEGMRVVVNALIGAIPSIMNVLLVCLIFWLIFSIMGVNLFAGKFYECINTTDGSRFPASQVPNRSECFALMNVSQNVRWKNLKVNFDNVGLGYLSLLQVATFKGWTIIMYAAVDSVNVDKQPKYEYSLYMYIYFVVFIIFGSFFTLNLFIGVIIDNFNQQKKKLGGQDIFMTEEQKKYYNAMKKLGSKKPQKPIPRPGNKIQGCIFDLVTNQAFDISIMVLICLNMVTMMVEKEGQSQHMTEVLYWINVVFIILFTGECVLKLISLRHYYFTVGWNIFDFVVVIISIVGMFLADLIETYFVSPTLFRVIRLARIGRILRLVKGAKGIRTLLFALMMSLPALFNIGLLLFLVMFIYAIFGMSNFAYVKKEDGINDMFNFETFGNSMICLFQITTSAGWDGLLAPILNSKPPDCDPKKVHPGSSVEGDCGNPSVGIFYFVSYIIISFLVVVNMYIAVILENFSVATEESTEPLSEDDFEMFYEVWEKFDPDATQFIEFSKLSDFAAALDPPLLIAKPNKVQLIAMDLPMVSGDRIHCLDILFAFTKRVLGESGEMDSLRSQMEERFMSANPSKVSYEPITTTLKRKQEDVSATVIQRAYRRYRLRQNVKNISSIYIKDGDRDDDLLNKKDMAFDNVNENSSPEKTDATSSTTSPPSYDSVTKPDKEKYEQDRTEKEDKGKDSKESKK

SMILES: CS(=O)(=O)NC(=O)c1cc(Cl)c(OCC2CCCCC2)cc1F
- IC50 [1]: 180 nM
- logD ([2]; read-out: logD): 1.4
- IC50 [3]: 43 nM

SMILES: CS(=O)(=O)NC(=O)c1cc(Cl)c(OCC23CC4CC(CC(C4)C2)C3)cc1Cl
- IC50 [1]: 2300 nM
- IC50 [3]: 570 nM

SMILES: CS(=O)(=O)NC(=O)c1cc(F)c(OCC23CC4CC(CC(C4)C2)C3)cc1F
- IC50 [1]: 640 nM
- IC50 [3]: 41 nM

SMILES: Cc1cc(C(=O)NS(C)(=O)=O)c(F)cc1OCC12CC3CC(CC(C3)C1)C2
- IC50 [1]: 37 nM
- IC50 [3]: 6 nM

SMILES: CC1(COc2cc(F)c(C(=O)NS(=O)(=O)C3CC3)cc2C2CC2)CCC(C(F)(F)F)CC1 (configuration not stated)
- IC50 [1]: 10 nM
- IC50 [3]: 6 nM

SMILES: CS(=O)(=O)NC(=O)c1cc(Cl)c(OCC2CCCC2)cc1F
- IC50 [1]: 520 nM
- logD ([2]; read-out: logD): 1.1
- IC50 [3]: 68 nM

SMILES: CS(=O)(=O)NC(=O)c1cc(Cl)c(OCC23CC4CC(CC(O)(C4)C2)C3)cc1F
- IC50 [1]: > 10000 nM
- IC50 [3]: 2200 nM

SMILES: CS(=O)(=O)NC(=O)c1cc(C2CC2)c(OCC2CCCCC2)cc1F
- IC50 [1]: 22 nM
- IC50 [3]: 0.7 nM

SMILES: CC1(COc2cc(F)c(C(=O)NS(=O)(=O)C3CC3)cc2C2CC2)CCC(F)(F)CC1
- fraction unbound [4]: 0.004
- AUC [5]: 160 µM·h
- bioavailability [6]: 49%
- AUC [7]: 350 µM·h
- Cmax [8]: 69 µM
- fraction unbound [9]: 0.002
- fraction unbound [10]: 0.002
- IC50 [11]: 2.5 nM
- IC50 [12]: 6 nM
- Activity [13]: 56%
- IC50 [14]: 260 nM
- Cmax [15]: 25 µM
- half-life [16]: 15.6 h
- Vd [17]: 0.29 L/kg
- logD ([2]; read-out: logD): 1.4
- Activity [18]: 72%
- IC50 [19]: 9 nM
- Papp A→B [20]: 22 ×10⁻⁶ cm/s
- Papp A→B [21]: 0.4 ×10⁻⁶ cm/s
- solubility kinetic [22]: 32 µM (≈ 14.3 µg/mL)
- Papp A→B [23]: 11 ×10⁻⁶ cm/s
- bioavailability [24]: 66%
- Vd [25]: 0.28 L/kg
- IC50 [26]: 48 nM
- half-life [27]: 16.9 h
- inhibition [28]: 26%
- half-life [29]: 9 h
- half-life [30]: 2.1 h
- clearance [31]: 0.4 mL/min/kg
- Activity [32]: 84%
- IC50 [33]: 49 nM
- clearance [34]: 1.6 mL/min/kg

SMILES: COCCS(=O)(=O)NC(=O)c1cc(C2CC2)c(OCC2CCC(F)(F)CC2)cc1F
- IC50 [1]: 304 nM
- IC50 [3]: 75 nM

SMILES: CS(=O)(=O)NC(=O)c1cc(Cl)c(OCCC2CC2)cc1F
- IC50 [1]: 2700 nM
- logD ([2]; read-out: logD): 0.4
- IC50 [3]: 440 nM

SMILES: CCc1cc(C(=O)NS(C)(=O)=O)c(F)cc1OCC12CC3CC(CC(C3)C1)C2
- IC50 [1]: 15 nM
- IC50 [3]: 6 nM

SMILES: CS(=O)(=O)NC(=O)c1ccc(OCC23CC4CC(CC(C4)C2)C3)c(Cl)c1
- IC50 [1]: 330 nM
- IC50 [3]: 59 nM

SMILES: CS(=O)(=O)NC(=O)c1cc(Cl)c(OCCC2CCCCC2)cc1F
- IC50 [1]: 500 nM
- logD ([2]; read-out: logD): 1.5
- IC50 [3]: 17 nM

SMILES: CS(=O)(=O)NC(=O)c1cc(Cl)c(OCC2CCOCC2)cc1F
- IC50 [1]: > 10000 nM
- logD ([2]; read-out: logD): 0.21
- IC50 [3]: 7400 nM

SMILES: CS(=O)(=O)NC(=O)c1cc(Cl)c(OCC23CC4CC(C2)C(F)(F)C(C4)C3)cc1F
- IC50 [1]: 290 nM

SMILES: CS(=O)(=O)NC(=O)c1cc(Cl)c(OC2CCCCC2)cc1F
- IC50 [1]: 1200 nM
- logD ([2]; read-out: logD): 1.3
- IC50 [3]: 260 nM

SMILES: CCC1(COc2cc(F)c(C(=O)NS(=O)(=O)C3CC3)cc2C2CC2)CCC(F)(F)CC1
- IC50 [1]: 17 nM
- IC50 [3]: 5 nM

SMILES: CS(=O)(=O)NC(=O)c1cc(C2CC2)c(OCC23CC4CC(C2)C(F)(F)C(C4)C3)cc1F
- IC50 [1]: 8 nM
- IC50 [3]: 3.1 nM

SMILES: CS(=O)(=O)NC(=O)c1cc(C2CC2)c(OCC23CC4CC(CC(C4)C2)C3)cc1F
- IC50 [1]: 6 nM

SMILES: O=C(NS(=O)(=O)C1CC1)c1cc(C2CC2)c(OCC2CCC(F)(F)CC2)cc1F
- IC50 [1]: 33 nM

SMILES: CS(=O)(=O)NC(=O)c1cc(Cl)c(OCC23CC4CC(CC(C4)C2)C3)cc1F
- AUC [35]: 240 µM·h
- Vd [36]: 1.2 L/kg
- Cmax [37]: 45 µM
- solubility [38]: 31 µM (≈ 12.9 µg/mL)
- logD [2]: 3.5
- bioavailability [39]: 100%
- Papp A→B [20]: 13 ×10⁻⁶ cm/s

SMILES: CS(=O)(=O)NC(=O)c1cc(Cl)c(OCC23CC4(F)CC(F)(CC(F)(C4)C2)C3)cc1F
- IC50 [1]: 2400 nM
- IC50 [3]: 752 nM

SMILES: CS(=O)(=O)NC(=O)c1cc(Cl)c(OCC23CC4CC(CC(F)(C4)C2)C3)cc1F
- IC50 [1]: 357 nM

SMILES: CC(C)c1cc(C(=O)NS(C)(=O)=O)c(F)cc1OCC12CC3CC(CC(C3)C1)C2
- IC50 [1]: 28 nM
- IC50 [3]: 10 nM
